The values that follow come from patent US20120149080A1, “YEAST PRODUCTION CULTURE FOR THE PRODUCTION OF BUTANOL” (Butamax(TM) Advanced Biofuels LLC, priority 2010, published 2012).

The test system of assay [1] is Saccharomyces cerevisiae BY4743. Kind of assay: Glucose utilization rate in high cell density culture in YPD. In kind it is cell-based. The method, then: Saccharomyces cerevisiae BY4743 was plated from a freezer vial onto YPD agar (Teknova, Hollister, Calif.; Cat. #Y1000) and incubated overnight at 30° C. Cells from the YPD plate were inoculated into a 25 ml pre-culture of YPD broth (Teknova, Hollister, Calif.; Cat. #Y5000) with an initial OD600 of 0.06 to 0.08, and this culture was grown for 7 hours in an air shaker at 30° C. An aliquot of the pre-culture was inoculated into 200 ml of YPD broth with an initial OD600 of 0.06 to 0.08, and this culture was incubated with aeration at 30° C. for approximately 17 hours. The optical density of the culture was determined, the culture was centrifuged and the cells were resuspended in fresh YPD broth to yield an OD600 of 8. […] Time of addition of cells was referred to as 0 hours. At various times, samples (1.5 ml) were withdrawn and centrifuged at 10,000 rpm for 2 minutes in a microfuge (Sorvall Biofuge pico). […] YSI, Inc., Yellow Springs, Ohio). Glucose consumption rates in the presence of isobutanol were also determined when the cell concentration was 18 gdcw/L or 24 gdcw/L. Cells from the YPD plate were inoculated into a 25 ml pre-culture of YPD broth (Teknova, Hollister, Calif. Cat. #Y5000) with an initial OD600 of 0.06 to 0.08, and this culture was grown for 7 hours in an air shaker at 30° C. […] The optical density of the culture was determined, the culture was centrifuged and the cells were resuspended in fresh YPD broth to yield an OD600 of 38 (18 gdcw/L). […] The experiment was repeated except that the starting OD600 was 49.1 (24 gdcw/L). […] The results for BY4743 are graphed in FIG. 4.

For another assay, the system named is S. cerevisiae PNY0602. The assay is described as follows: Glucose utilization rate under non-growing conditions in buffer. In kind it is cell-based, Saccharomyces cerevisiae. As to conditions: PNY0602, 20 g/L isobutanol. The method, then: (§1) Isobutanol production may or may not be coupled to growth. Therefore we measured the glucose consumption rates under non-growing conditions using three different pH buffers.
(§2) Glucose consumption rates were determined in phosphate buffer pH 6.5 as outlined by Diderich, J. A., et al., Microbiology, 1999, 145 p. 3447-54. We also determined the glucose consumption rates at pH 5.25 and pH 4.0 using MES buffer.
(§3) Cells were grown overnight at 30° C. in YPD (125 ml in a 500 ml flask). Cells were centrifuged and resuspended in buffer (0.1M phosphate buffer pH 6.0 or 0.1M MES buffer pH 5.25 or 0.1M MES buffer pH 4.0), washed one time, and then resuspended such that each cell suspension had approximately 16 OD or 160 million cell/ml. 10 ml of these stock cells were transferred to flasks containing 10 ml of the corresponding buffer containing 40 g/L glucose and varying concentrations of isobutanol. At various times samples (500 to 700 ul) were transferred to a tube containing an equal volume of 10% TCA. Samples were centrifuged and glucose determined in the YSI glucose analyzer. Glucose consumption rates were determined by plotting the amount of glucose consumed over time.

The test system of a further assay is S. cerevisiae PNY0614. Described as above. In kind it is cell-based, Saccharomyces cerevisiae. As to conditions: PNY0614, 20 g/L isobutanol. The method, then: as §1, §2, §3
The next assay relates to S. cerevisiae PNY0569. The assay is described as above. It counts as cell-based, Saccharomyces cerevisiae. As to conditions: PNY0569, 20 g/L isobutanol. The procedure:
as §1, §2, §3

Assay [2] has as its system Issatchenkia orientalis PNY0660. The assay is described as follows: Glucose utilization rate in high cell density culture in corn test medium. It counts as cell-based. The conditions noted are these: for Glucose utilization rate: 30 C., 0 h to 6 h, 2.7 gdcw/L, corn test medium. The method, then: Strain Issatchenkia orientalis PNY0660, was derived from ATCC 20381 strain that was previously referred to as Candida acidothermophilium. Strain PNY0660 was plated from a freezer vial onto YPD agar (Teknova, Hollister, Calif.; Cat. #Y1000) and incubated overnight at 30° C. Cells from the YPD plate were inoculated into a 50 ml pre-culture of YPD broth (Teknova, Hollister, Calif.; Cat. #Y5000) with an initial OD600 of 0.06 to 0.08, and this culture was grown for 5 hours in an air shaker at 30° C. An aliquot of the pre-culture was inoculated into 200 ml of YPD broth with an initial OD600 of 0.6, and this culture was incubated with aeration at 30° C. for approximately 17 hours. The optical density of the culture was determined, the culture was centrifuged, and the sugar consumption rate was determined in corn test medium. Corn test medium contained 0.2% casamino acids and 2% glucose and 100 mM MES buffer pH 5.25 and per liter contained (i) salts: ammonium sulfate 5.0 g, potassium phosphate monobasic 2.8 g, and magnesium sulfate heptahydrate 0.5 g, (ii) vitamins: biotin (D−) 0.40 mg, Ca D(+) panthotenate 8.00 mg, myo-inositol 200.00 mg, pyridoxol hydrochloride 8.00 mg, p-aminobenzoic acid 1.60 mg, riboflavin 1.60 mg, folic acid 0.02 mg, niacin 30.0 mg, and thiamine 30 mg; and (iii) trace elements: EDTA (Titriplex 1117) 99.38 mg, zinc sulphate heptahydrate 29.81 mg, manganese chloride dehydrate 5.57 mg, cobalt(II)chloride hexahydrate 1.99 mg, copper(II)sulphate pentahydrate 1.99 mg, Di-sodium molybdenum dehydrate 2.65 mg, calcium chloride dehydrate 29.81 mg, iron sulphate heptahydrate 19.88 mg, and boric acid.
20 ml cultures (2.7 gdcw/L) in corn test medium were transferred to flasks that contained 0.0%, 0.5%, 1.0%, 1.5%, 1.75% or 2.0% isobutanol. Time of addition of cells was referred to as 0 hours. At various times, samples (1.5 ml) were withdrawn and centrifuged at 10,000 rpm for 2 minutes in a microfuge (Sorvall Biofuge pico). The supernatant was filtered through a 0.2 μm filter (Pall Life Sciences, Port Washington, N.Y.) Pall GHP Acrodisc 13 mm Syringe Filter with 0.2 μm GHP Membrane), the filtrate was diluted ten-fold, and the glucose concentration was determined using a YSI Glucose Analyzer (YSI 2700 Select; YSI, Inc., Yellow Springs, Ohio).

Setting [3] is: 1.5% isobutanol, 3.8 and 24 gdcw/L cultures.

On to `CC(C)CO` [Isobutanol, isobutanol], for which the “calculated rate of glucose utilization” value in assay [1] (1% isobutanol, high cell density cultures) is “at least 1.4 gram per gdcw per hour”. The glucose consumption rate entry in assay [1] (setting [3]) was “about 1.1 g/gdcw/h”. Besides, in assay [1] (setting [3]), the “glucose consumption rate, % of the control rate” value is on record as “approximately 50%”. Moreover, the “rate of glucose utilization” value in assay [1] (1.5% isobutanol, 3.8 gdcw/L and 24 gdcw/L cultures) is on record as “at least 1 gram per gdcw per hour”; in assay [1] (2% isobutanol, high cell density cultures) it was “at least 0.5 gram per gdcw per hour”; in assay [1] (2.5% isobutanol, high cell density cultures) it was “at least 0.4 gram per gdcw per hour”; in assay [1] (3% isobutanol, high cell density cultures), “at least 0.2 gram per gdcw per hour”. In addition, the “Glucose Utilization (g/gdcw/h)” value was determined as 0.9 g/gdcw/h with S. cerevisiae PNY0602 (pH 4, non-growing); 1.1 g/gdcw/h with S. cerevisiae PNY0602 (pH 5.25, non-growing); 0.7 g/gdcw/h in the assay on S. cerevisiae PNY0602 (pH 6.5, non-growing); 0.9 g/gdcw/h in the assay on S. cerevisiae PNY0614 (pH 4, non-growing); 1.1 g/gdcw/h in the assay with S. cerevisiae PNY0614 (pH 5.25, non-growing); 0.7 g/gdcw/h in the assay with S. cerevisiae PNY0614 (pH 6.5, non-growing). Further, the “Glucose Utilization (g/gdcw/h)” value in the assay on S. cerevisiae PNY0569 (pH 4, non-growing) is 0.7 g/gdcw/h; in the assay on S. cerevisiae PNY0569 (pH 5.25, non-growing), 0.8 g/gdcw/h; with S. cerevisiae PNY0569 (pH 6.5, non-growing), 0.6 g/gdcw/h. Besides, the Glucose utilization rate came to 2.4 g/gdcw/h in assay [2] (5.0 g/L isobutanol); 2.4 g/gdcw/h in assay [2] (10.0 g/L isobutanol); 1.4 g/gdcw/h in assay [2] (15.0 g/L isobutanol); 0.9 g/gdcw/h in assay [2] (17.5 g/L isobutanol); 0.7 g/gdcw/h in assay [2] (20.0 g/L isobutanol). For the same compound, the sugar consumption rate in assay [2] (I. orientalis strains, 20 g/l of isobutanol) stood at 0.7 g/gdw/h.
